Here are results for eight compounds from patent publication US12410211B2, “V1A receptor partial agonist and method of use” (PharmaIN Corporation, priority 2020, dated 2025).

A short description of data set [1]: Acute diuretic activity of Terlipressin, Tolvaptan and combinations in Wistar rats (Example 5). Type of data set: in vivo. Conditions: Furosemide 20 mg/kg oral gavage (positive control). How it is done:
The animals were then treated with Terlipressin (Bachem, Torrance CA), Tolvaptan (Fisher Scientific, Waltham, MA) and combination of the two compounds at various concentrations administered subcutaneously (n=4). Test articles were Terlipressin 0.05 mg/Kg and 0.15 mg/Kg, Tolvaptan 0.3 mg/Kg, and 1.0 mg/Kg, Terlipressin 0.05 mg/Kg+Tolvaptan 0.3 mg/Kg, Terlipressin 0.05 mg/Kg+Tolvaptan 1.0 mg/Kg, Terlipressin 0.15 mg/Kg+Tolvaptan 0.3 mg/Kg, and Terlipressin 0.15 mg/Kg+1.0 mg/Kg. Furosemide (Fisher Scientific, Waltham, MA) was used as positive control and dosed at 20 mg/kg via oral gavage. Control dosed vehicle group (9% tween 80; Fisher Scientific, Waltham MA) administered subcutaneously was included and the resulting data was subtracted from individual test article data. After the dose, animals were placed in the metabolic cage (Tecniplast; Province of Varese, Italy) and urine was collected and measured at 2, 4 and 8 hours after the dosing of test articles. Urine volumes were divided by the body weight (pre-dose) times 100 to express in ml/100 g body weight.

Another data set concerns the target T1, V1a receptor (Homo sapiens, UniProt P37288).
T1 construct: host or cells: CHO cells
The data set is described as follows: V1a Human Vasopressin GPCR Cell Based Agonist Calcium Flux Assay. Conditions: for EC50 / Emax: n = 2; for Emax: read-out: V1a Highest agonist effect (% of AVP). In general terms: Calcium assays in cells follow changes in intracellular calcium, usually with a dye or a luminescent sensor.

The conditions of data set [2]: cited from earlier work.
Data set [3] can be described thus: Therapeutic index (NOAEL/NOEL): paleness, lethargy, ataxia observation in Sprague-Dawley rats (Example 7). It is filed as in vivo. An outline of the steps:
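Male Sprague-Dawley rats, 8–10 weeks, under isoflurane (n=3 or 6), dosed IV or SC with test articles. Paleness judged by ear colour beside untreated controls; lethargy and ataxia scored by observation. Index expressed as NOAEL/NOEL ratio.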

The nature of data set [4]: Telemetric evaluation of portal vein pressure in rats with bile duct ligation (Example 9). It is filed as in vivo, Sprague Dawley rats. Conditions: for Percent decrease (%) in Mean Portal Vein Pressure (MPVP) from BDL baseline prior to treatment: BDL rats n = 4, 12 μg/kg subcutaneous. How it is done:
For this study, animals (Sprague Dawley rats (240-300 g at surgery from Charles River Laboratory) were maintained at room temperatures (20 to 22° C.) with 14-hour light, 10-hour dark cycle when not performing study procedures. The mean portal vein pressure (MPVP) reduction efficacy of a peptide of Formula ([…] [SEQ ID NO. 13]; Mpa and C are disulfide bonded; represented as TA-1) was compared to terlipressin in telemetered male with Bile Duct Ligation (BDL) and Sham surgery. On Study Day 1, rats received bile duct ligation surgery and telemetry implantation. The BDL group (n=4) had two stands of silk suture tightened and tied to occlude the bile duct; the sham group (n=3) had sutures loosely tied around the bile duct so that no occlusion occurred. After recovery from surgery, all rats had their portal vein pressure monitored continuously via telemetry until Day 22. […] Terlipressin was administered through intravenous bolus into a lateral tail vein on Day 20 and 21. All animals were dosed under manual restraint. Systolic portal vein pressure and diastolic portal vein pressure were measured to calculate the Mean Portal Vein Pressure ([…] was analyzed by averaging 5 minute intervals for the first 4 hours after dose and thereafter averaging 1 hour intervals after dose until 24 hours. […] Telemetric evaluation of […] [SEQ ID NO. 13] and Terlipressin on portal vein pressure in rats with bile duct ligation. The animal room temperatures were set to maintain 20 to 22° C. A 14-hour light, 10-hour dark cycle was implemented unless interrupted by study procedures. Efficacy was assessed by evaluating mean portal vein pressure (MPVP) at different concentrations of Formula 1 and Terlipressin in telemetered male Sprague Dawley rats (240-300 g at surgery from Charles River Laboratory) with Bile Duct Ligation (BDL) and Sham surgery. On Study Day 1, rats received bile duct ligation surgery and telemetry implantation. The BDL group (n=4) had two stands of silk suture tightened and tied to occlude the bile duct; the sham group (n=3) had sutures loosely tied around the bile duct so that no occlusion occurred. After recovery from surgery, all rats had their portal vein pressure monitored continuously via telemetry until Day 22. […] Formula 1 was administered at different concentrations subcutaneously on Day 15 to 19, and Day 23; Terlipressin was administered through intravenous bolus into a lateral tail vein on Day 20 and 21. All animals were dosed under manual restraint. Systolic portal vein pressure and diastolic portal vein pressure were measured to calculate the Mean Portal Vein Pressure ([…] was analyzed by averaging 5 minute intervals for the first 4 hours after dose and thereafter averaging 1 hour intervals after dose until 24 hours.

The nature of data set [5]: Acute diuretic activity of Tolvaptan and peptides of Formula (II) and (IV) in Wistar rats (Example 6). Type of data set: in vivo. The method, then:
In this study, Male Wistar Rats (˜8 weeks; Envigo; Somerset, NJ) were fasted overnight (18 hours; free access to water) followed by treatment with saline at 20 ml/Kg via oral gavage to have a uniform hydration of all the animals. The animals were then treated with various concentrations of test articles administered subcutaneously (n=4) (Table 5). Control dosed vehicle group (9% tween 80; Fisher Scientific, Waltham MA) administered subcutaneously was included and the resulting data was subtracted from individual test article data. After the dose, animals were placed in the metabolic cage (Tecniplast; Province of Varese, Italy) and urine was collected and measured at 2, 4 and 8 hours after the dosing of test articles. Urine volumes were divided by the body weight (pre-dose) times 100 to express in ml/100 g body weight. […] However, at any ratio, a tolvaptan dose of about 0.3 mg/Kg (i.e., 0.3+0.05 mg/Kg) administered in rats (allometrically equivalent to about 2-7 mg/human depending on persons weight) is an ideal dose that when combined with the composition of the present disclosure provides greater than 50% of the sum of individual diuretic effect administered alone. Low dose of 0.3 mg/Kg of subcutaneous tolvaptan is considered to be 13-fold below the effective safe human dose thus providing additional advantage to patients with liver disease. This can increase mean arterial blood pressure (MAP) which is a V1a effect caused by composition of the present disclosure while maintaining significant (at least 50% of the sum of individual diuretic effect administered alone) of both.

Where [6] appears, read: S.C., at the Marked adverse effect dose.
Where [7] appears, read: S.C., at the Mild adverse effect dose.
[8] abbreviates: in vivo, sc, S.C., rat, read-out: Highest dose with no-observed adverse effect level without lethargy (NOAEL).
[9] abbreviates: peptide alone 0.015 mg/kg subcutaneous.
Where [10] appears, read: peptide alone 0.05 mg/kg subcutaneous.

Like-named read-outs stand apart in the source and are kept apart here. Marks after values point to notes of the source that are not given here.

T1 sequence (P37288 whole entry): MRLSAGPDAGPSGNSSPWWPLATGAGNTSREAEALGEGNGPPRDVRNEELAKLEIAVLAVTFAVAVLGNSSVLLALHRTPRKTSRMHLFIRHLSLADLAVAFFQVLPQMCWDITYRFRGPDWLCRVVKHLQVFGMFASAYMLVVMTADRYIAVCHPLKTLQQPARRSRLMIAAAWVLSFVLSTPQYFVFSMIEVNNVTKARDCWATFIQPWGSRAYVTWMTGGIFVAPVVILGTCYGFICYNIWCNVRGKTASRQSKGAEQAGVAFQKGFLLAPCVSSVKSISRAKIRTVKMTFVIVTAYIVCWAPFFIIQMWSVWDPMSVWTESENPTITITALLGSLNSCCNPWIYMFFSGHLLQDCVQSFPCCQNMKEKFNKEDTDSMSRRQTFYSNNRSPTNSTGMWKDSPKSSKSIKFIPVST

On to `NS(=O)(=O)c1cc(C(=O)O)c(NCc2ccco2)cc1Cl` [Furosemide], for which the “Average mL of Urine per 100 gram body weight 8 hours cumulative (n = 4) minus Vehicle group (Tween 80); (SEM)” value in data set [1] is recorded as 1.73 (0.22) mL per 100 gram body weight.
What is called EC50 is the concentration that produces a half-maximal response. Take `NCCCC[C@H](NC(=O)[C@@H]1CCCN1C(=O)[C@@H]1CSSC[C@H](N)C(=O)N[C@@H](Cc2ccc(O)cc2)C(=O)N[C@@H](Cc2ccccc2)C(=O)N[C@@H](CCC(N)=O)C(=O)N[C@@H](CC(N)=O)C(=O)N1)C(=O)NCC(N)=O` [Lysine vasopressin (LVP), Lysine vasopressin, reference compound]: at V1a receptor (Table 3, CHO cells expressing human V1 receptor, read-out: Estimated V1a EC50 (nM)), the EC50 is 1.65 nM. For the same compound, the Emax on V1a receptor (Table 3) was 92.1%. Further, at V1a receptor (Table 4), the “V1a Highest agonist effect (% of AVP); n = 2” value is on record as 92.1 % of AVP. The plasma half-life in data set [2] (in vivo) was 0.833 h.
The term NOAEL denotes the highest tested level that showed no adverse finding. As for `NCC(=O)NCC(=O)NCC(=O)NCC(=O)NCC(=O)NCC(=O)NCCCC[C@H](NC(=O)[C@@H]1CCCN1C(=O)[C@@H]1CSSCCC(=O)N[C@@H](Cc2ccc(O)cc2)C(=O)N[C@@H](Cc2ccccc2)C(=O)N[C@@H](CCCC(N)=O)C(=O)N[C@@H](CC(N)=O)C(=O)N1)C(=O)NCC(N)=O` [SEQ ID NO. 13, Mpa-Tyr-Phe-Hgn-Asn-Cys-Pro-Lys(X)a-Gly-NH2; (X)a = (Gly)6], the Emax on V1a receptor turned out to be 28.2%. Further, the “Paleness (Duration, hrs; SD)” value in data set [3] (setting [6]) is given as “(>5.6)* hrs”; in data set [3] (setting [7]), “(6.23 ± 0.06) hrs”; in data set [3] (S.C., at the NOAEL dose) it was “(6.07 ± 0.08) hrs”; in data set [3] (S.C., at the NOEL dose), “None observed”. The “Highest dose with no-observed effect level or paleness (NOEL)” value in data set [3] (S.C., rat) came out at 0.003 mg/kg. Besides, the NOAEL at 24 h in data set [3] (male, Sprague-Dawley, in vivo, sc, S.C., rat, read-out: Highest dose with no-observed adverse effect level without lethargy (NOAEL)) is 0.3 mg/kg. Besides, in data set [3] (rat, in vivo, sc), the “Marked adverse effect (Lowest dose first showed Ataxia)” value (“Marked adverse effect” below) is 5.0 mg/kg. Also, the “Mild adverse effect (Lowest dose first showed Lethargy)” value (“Mild adverse effect” for short) in data set [3] (rat, in vivo, sc) was found to be 0.5 mg/kg. In addition, in data set [4] (12 ug/kg dose, BDL rats), the “drop in portal pressure compared to Terlipressin (41 ug/kg)” value is given as “more effective in providing a sustain drop in portal pressure”. Also, the “Percent decrease (%) in Mean Portal Vein Pressure (MPVP) from BDL baseline prior to treatment” value in data set [4] (Time 1 hr) is given as 5%; in data set [4] (Time 4 hr), −30.5%; in data set [4] (Time 7 hr) it was −10.5%; in data set [4] (Time 20 hr) it was −29.75%.
As to `CC(=O)NCCCC[C@H](NC(=O)[C@@H]1CCCN1C(=O)[C@@H]1CSSCCC(=O)N[C@@H](Cc2ccc(O)cc2)C(=O)N[C@@H](Cc2ccccc2)C(=O)N[C@@H](CCCC(N)=O)C(=O)N[C@@H](CC(N)=O)C(=O)N1)C(=O)NCC(N)=O` [SEQ ID NO. 28, Mpa-Tyr-Phe-Hgn-Asn-Cys-Pro-Lys(X)a-Gly-NH2; (X)a = Ac], the EC50 at V1a receptor (Table 3, cells printed in μM, read-out: Estimated V1a EC50) was > 10000 nM. Moreover, on V1a receptor (Table 3), the Emax worked out at 30%. Also, in data set [3] (S.C., rat), the “Highest dose with no-observed effect level or paleness (NOEL)” value was found to be 0.1 mg/kg and the “NOAEL/NOEL (therapeutic index)” value was 3. Also, the NOAEL in data set [3] (setting [8]) was found to be 0.33 mg/kg. In addition, in data set [3] (rat, in vivo, sc), the “Marked adverse effect” value was determined as 3 mg/kg and the “Mild adverse effect” value stood at 1 mg/kg.
Turning to `NCCCC[C@H](NC(=O)[C@@H]1CCCN1C(=O)[C@@H]1CSSCCC(=O)N[C@@H](Cc2ccc(O)cc2)C(=O)N[C@@H](Cc2ccccc2)C(=O)N[C@@H](CCC(N)=O)C(=O)N[C@@H](CC(N)=O)C(=O)N1)C(=O)NCC(N)=O` [SEQ ID NO. 32], the entries for the “Average 8 hours cumulative Urine Volume: mL per 100 gram body weight (SEM; n = 4) minus Tween 80 vehicle group” value in data set [5] (peptide alone 0.005 mg/kg subcutaneous), in data set [5] (setting [9]) and in data set [5] (setting [10]) were 0.80 (0.50) mL per 100 gram body weight, 0.86 (0.28) mL per 100 gram body weight and 0.74 (0.55) mL per 100 gram body weight, respectively. The “Paleness (Duration, hrs; SD)” value was “(4.79 ± 0.08) hrs” in data set [3] (setting [6]); “(4.45 ± 0.26) hrs” in data set [3] (setting [7]); “(3.54 ± 0.11) hrs” in data set [3] (S.C., at the NOAEL dose); “None observed” in data set [3] (S.C., at the NOEL dose). The “Highest dose with no-observed effect level or paleness (NOEL)” value in data set [3] (S.C., rat) was 0.0005 mg/kg. The “NOAEL/NOEL (therapeutic index)” value in data set [3] (S.C., rat) is recorded as 20. Besides, the NOAEL in data set [3] (setting [8]) was determined as 0.01 mg/kg. For the same compound, the “Marked adverse effect” value in data set [3] (rat, in vivo, sc) is 0.1 mg/kg. Moreover, the “Mild adverse effect” value in data set [3] (rat, in vivo, sc) came out at 0.03 mg/kg.
Turning to `NC(=O)CC[C@@H]1NC(=O)[C@H](Cc2ccccc2)NC(=O)[C@H](Cc2ccc(O)cc2)NC(=O)[C@@H](N)CSSC[C@@H](C(=O)N2CCC[C@H]2C(=O)N[C@@H](CCCN=C(N)N)C(=O)NCC(N)=O)NC(=O)[C@H](CC(N)=O)NC1=O` [Vasopressin], in data set [2] (in vivo), the “excreted through the kidney” value is listed as 65%; the “metabolized by liver and kidney vasopressinases” value is 35%; the protein binding entry is given as “not protein-bound”. In data set [2] (plasma), the volume of distribution is 0.14 L/kg.
One may read the half-life as the time in which the quantity being followed falls by half. On to `NC(=O)CC[C@@H]1NC(=O)[C@H](Cc2ccccc2)NC(=O)[C@H](Cc2ccc(O)cc2)NC(=O)CCSSC[C@@H](C(=O)N2CCC[C@H]2C(=O)N[C@H](CCCN=C(N)N)C(=O)NCC(N)=O)NC(=O)[C@H](CC(N)=O)NC1=O` [desmopressin], for which the half-life in data set [2] (in vivo) is 2 h.
“Mpa-Tyr-Phe-Gln-Asn-Cys-Pro-Lys(X)a-Gly-NH2; (X)a = (Gly)5 [SEQ ID NO. 33]”: the “Average 8 hours cumulative Urine Volume: mL per 100 gram body weight (SEM; n = 4) minus Tween 80 vehicle group” value is on record as 1.11 (0.11) mL per 100 gram body weight in data set [5] (setting [9]), 1.32 (0.09) mL per 100 gram body weight in data set [5] (setting [10]) and 1.85 (0.20) mL per 100 gram body weight in data set [5] (peptide alone 0.15 mg/kg subcutaneous).
